In patent publication US20100056524A1, “Compound” (priority 2008, published 2010):
Counter-ions that a name gives are not always drawn.

Each molecule was assayed against T1, TBK1 (Homo sapiens, UniProt Q9UHD2) (assay: TBK1 protein kinase assay ([γ-33P]ATP, P81 filterplates)). Conditions: 50 μM ATP; read-out: Potency (TBK1 IC50 potency score).
T1 construct: All protein kinases were of human origin and encoded full length proteins, unless indicated otherwise; His6; made in house; host or cells: insect Sf21 cells
T1 sequence (Q9UHD2 1-729): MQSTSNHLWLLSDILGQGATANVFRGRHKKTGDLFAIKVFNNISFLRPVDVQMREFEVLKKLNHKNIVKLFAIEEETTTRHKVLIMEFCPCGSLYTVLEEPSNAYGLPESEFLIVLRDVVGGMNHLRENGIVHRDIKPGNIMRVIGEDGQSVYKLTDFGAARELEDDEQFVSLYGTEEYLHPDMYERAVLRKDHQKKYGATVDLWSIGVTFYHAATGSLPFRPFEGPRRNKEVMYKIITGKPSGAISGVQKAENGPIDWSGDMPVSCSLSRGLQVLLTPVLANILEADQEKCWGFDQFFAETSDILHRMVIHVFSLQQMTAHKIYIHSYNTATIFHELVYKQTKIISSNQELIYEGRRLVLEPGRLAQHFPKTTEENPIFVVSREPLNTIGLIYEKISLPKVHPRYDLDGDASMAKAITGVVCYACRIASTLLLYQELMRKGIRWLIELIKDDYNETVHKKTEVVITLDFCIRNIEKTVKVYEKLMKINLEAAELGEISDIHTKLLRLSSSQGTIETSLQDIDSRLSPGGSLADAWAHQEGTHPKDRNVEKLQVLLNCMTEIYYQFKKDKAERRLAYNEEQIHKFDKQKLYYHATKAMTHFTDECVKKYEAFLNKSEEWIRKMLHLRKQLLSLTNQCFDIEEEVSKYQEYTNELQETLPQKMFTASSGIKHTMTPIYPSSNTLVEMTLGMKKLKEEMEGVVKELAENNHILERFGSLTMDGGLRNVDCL
Assay type: biochemical
Source text: All protein kinases were of human origin and encoded full length proteins, unless indicated otherwise. They were either expressed as glutathione S-transferase (GST) fusion proteins in Escherichia Coli or as hexahistidine (His6)-tagged proteins in insect Sf21 cells. GST fusion proteins were purified by affinity chromatography on glutathione-Sepharose, and His6-tagged proteins on nickel/nitriloacetate-agarose. The procedures for expressing some of the protein kinases used herein have been detailed previously.^8,9 The following sections outline the DNA vectors synthesised and the procedures used to express and purifying protein kinases that have not been reported previously.
The following kinases were expressed in Sf21 cells: Aurora B and Aurora C, extra-cellular signal-regulated kinase 8 (ERK8), microtubule affinity regulating kinase 3 (MARK3), protein kinase Bα[118-480][S473D], protein kinase Bβ (PKBβ[120-481][S474D], 3-phosphoinositide-dependent protein kinase-1 [52-556]
Assays were performed for 30 min using Multidrop Micro reagent dispensers (Thermo Electron Corporation, Waltham, Mass. 02454, USA) in a 96-well format. The concentration of magnesium acetate in the assays was 10 mM and the [γ-33P] ATP (800 cpm/pmol) was used at 5, 20 or 50 μM as indicated, in order to be at or below the Km for ATP for each enzyme. Protein kinases assayed at 5 μM ATP were: —ERK1, ERK8, PKBα, MARK3, Aurora C. Protein kinases assayed at 20 μM ATP were: —JNK1, PDK1, CHK1, CHK2, CDK2 and Aurora B. Protein kinases assayed at 50 μM ATP were: —MNK2, IKKepsilon and TBK1.
The assays were initiated with MgATP, stopped by addition of 5 μl of 0.5 M orthophosphoric acid and spotted on to P81 filterplates using a unifilter harvester (PerkinElmer, Boston, Mass. 02118, USA). The IC50 values of inhibitors were determined after carrying out assays at 10 different concentrations of each compound.
ERK1 and ERK8 were both assayed against myelin basic protein (MBP, 0.33 mg/ml). MARK3 was assayed against the peptide […] (300 μM), MNK2 against the eIF4E protein (0.5 mg/ml). PKBβ was assayed against the peptide […] (30 μM). TBK1 were assayed against ([…]) (300 μM). The substrates used for other protein kinases were described previously.^8,9
Unless stated otherwise, enzymes were diluted in 50 mM Tris/HCl pH 7.5, 0.1 mM EGTA, 1 mg/ml BSA, 0.1% (v/v) 2-mercaptoethanol and assayed in 50 mM Tris/HCl pH 7.5, 0.1 mM EGTA, 0.1% (v/v) 2-mercaptoethanol.
`CC(=O)NCCCNc1nc(Nc2cccc(F)c2)ncc1C1CC1` [Example 1, N-{3-[5-Cyclopropyl-2-(3-fluoro-phenylamino)-pyrimidin-4-ylamino]-propyl}-acetamide trifluoroacetic acid salt] was tested, and the IC50 was 100 to 1000 nM.
Molecule `CC(C)C(=O)NCCCNc1nc(Nc2cccc(F)c2)ncc1C1CC1` [Example 2, N-{3-[5-Cyclopropyl-2-(3-fluoro-phenylamino)-pyrimidin-4-ylamino]-propyl}-isobutyramide trifluoroacetic acid salt] has an IC50 of less than 100 nM.
Molecule `O=C(NCCCNc1nc(Nc2cccc(F)c2)ncc1C1CC1)C1CCCCC1` [Example 3, Cyclohexanecarboxylic acid {3-[5-cyclopropyl-2-(3-fluoro-phenylamino)-pyrimidin-4-ylamino]-propyl}-amide trifluoroacetic acid salt] has an IC50 of less than 100 nM.
For `CN(C)CC(=O)NCCCNc1nc(Nc2cccc(F)c2)ncc1C1CC1` [Example 4, N-{3-[5-Cyclopropyl-2-(3-fluoro-phenylamino)-pyrimidin-4-ylamino]-propyl}-2-dimethylamino-acetamide trifluoroacetic acid salt], the IC50 was 100 to 1000 nM.
Molecule `O=C(NCCCNc1nc(Nc2cccc(F)c2)ncc1C1CC1)c1ccco1` [Example 5, Furan-2-carboxylic acid{3-[5-cyclopropyl-2-(3-fluoro-phenylamino)-pyrimidin-4-ylamino]-propyl}-amide trifluoroacetic acid salt] has an IC50 of 100 to 1000 nM.
`O=C(CC1CCCC1)NCCCNc1nc(Nc2cccc(F)c2)ncc1C1CC1` [Example 6, 2-Cyclopentyl-N-{3-[5-cyclopropyl-2-(3-fluoro-phenylamino)-pyrimidin-4-ylamino]-propyl}-acetamide trifluoroacetic acid salt] was tested, and the IC50 was less than 100 nM.
Work on `O=C(NCCCNc1nc(Nc2cccc(F)c2)ncc1C1CC1)c1ccn[nH]1` [Example 7, 2H-Pyrazole-3-carboxylic acid {3-[5-cyclopropyl-2-(3-fluoro-phenylamino)-pyrimidin-4-ylamino]-propyl}-amide trifluoroacetic acid salt] yielded an IC50 of 100 to 1000 nM.
Work on `Cc1oncc1C(=O)NCCCNc1nc(Nc2cccc(F)c2)ncc1C1CC1` [Example 8, 5-Methyl-isoxazole-4-carboxylic acid{3-[5-cyclopropyl-2-(3-fluoro-phenylamino)-pyrimidin-4-ylamino]-propyl}-amide trifluoroacetic acid salt] yielded an IC50 of less than 100 nM.
`O=C(NCCCNc1nc(Nc2cccc(F)c2)ncc1C1CC1)c1nc[nH]n1` [Example 9, 1H-1,2,4-Triazole-3-carboxylic acid {3-[5-cyclopropyl-2-(3-fluoro-phenylamino)-pyrimidin-4-ylamino]-propyl}-amide trifluoroacetic acid salt] gave an IC50 of 100 to 1000 nM.
Molecule `Cn1cnc(C(=O)NCCCNc2nc(Nc3cccc(F)c3)ncc2C2CC2)c1` [Example 10, 1-Methyl-1H-imidazole-4-carboxylic acid {3-[5-cyclopropyl-2-(3-fluoro-phenylamino)-pyrimidin-4-ylamino]-propyl}-amide trifluoroacetic acid salt] has an IC50 of 1000 to 10000 nM.
Molecule `O=C(NCCCNc1nc(Nc2cccc(F)c2)ncc1C1CC1)c1cncs1` [Example 11, Thiazole-5-carboxylic acid {3-[5-cyclopropyl-2-(3-fluoro-phenylamino)-pyrimidin-4-ylamino]-propyl}-amide] has an IC50 of less than 100 nM.
`Cc1ccc(C(=O)NCCCNc2nc(Nc3cccc(F)c3)ncc2C2CC2)s1` [Example 12, 5-Methyl-thiophene-2-carboxylic acid {3-[5-cyclopropyl-2-(3-fluoro-phenylamino)-pyrimidin-4-ylamino]-propyl}-amide] showed an IC50 of 100 to 1000 nM.
In the case of `Cc1n[nH]c(C)c1C(=O)NCCCNc1nc(Nc2cccc(F)c2)ncc1C1CC1` [Example 13, 3,5-Dimethyl-1H-pyrazole-4-carboxylic acid {3-[5-cyclopropyl-2-(3-fluoro-phenylamino)-pyrimidin-4-ylamino]-propyl}-amide], the IC50 is reported as 1000 to 10000 nM.
Molecule `O=C(NCCCNc1nc(Nc2cccc(F)c2)ncc1C1CC1)C1CCOC1` (stereo not shown) [Example 14, Tetrahydro-furan-3-carboxylic acid {3-[5-cyclopropyl-2-(3-fluoro-phenylamino)-pyrimidin-4-ylamino]-propyl}-amide] has an IC50 of less than 100 nM.
Molecule `O=C(NCCCNc1nc(Nc2cccc(F)c2)ncc1C1CC1)C1CCCO1` (stereo not shown) [Example 15, Tetrahydro-furan-2-carboxylic acid {3-[5-cyclopropyl-2-(3-fluoro-phenylamino)-pyrimidin-4-ylamino]-propyl}-amide] has an IC50 of 100 to 1000 nM.
`Cn1cccc1C(=O)NCCCNc1nc(Nc2cccc(F)c2)ncc1C1CC1` [Example 16, 1-Methyl-1H-pyrrole-2-carboxylic acid {3-[5-cyclopropyl-2-(3-fluoro-phenylamino)-pyrimidin-4-ylamino]-propyl}-amide] gave an IC50 of 100 to 1000 nM.
For `O=C(NCCCNc1nc(Nc2cccc(F)c2)ncc1C1CC1)c1ccsc1` [Example 17, Thiophene-3-carboxylic acid {3-[5-cyclopropyl-2-(3-fluoro-phenylamino)-pyrimidin-4-ylamino]-propyl}-amide], the IC50 was less than 100 nM.
With `Cn1ccnc1C(=O)NCCCNc1nc(Nc2cccc(F)c2)ncc1C1CC1` [Example 18, 1-Methyl-1H-imidazole-2-carboxylic acid {3-[5-cyclopropyl-2-(3-fluoro-phenylamino)-pyrimidin-4-ylamino]-propyl}-amide] the IC50 was 1000 to 10000 nM.
With `O=C(NCCCNc1nc(Nc2cccc(F)c2)ncc1C1CC1)c1cocn1` [Example 19, Oxazole-4-carboxylic acid {3-[5-cyclopropyl-2-(3-fluoro-phenylamino)-pyrimidin-4-ylamino]-propyl}-amide] the IC50 was 100 to 1000 nM.
Work on `O=C(NCCCNc1nc(Nc2cccc(F)c2)ncc1C1CC1)c1nccs1` [Example 20, Thiazole-2-carboxylic acid {3-[5-cyclopropyl-2-(3-fluoro-phenylamino)-pyrimidin-4-ylamino]-propyl}-amide] yielded an IC50 of less than 100 nM.
Molecule `O=C(NCCCNc1nc(Nc2cccc(F)c2)ncc1C1CC1)c1ccc(Cl)s1` [Example 21, 5-Chloro-thiophene-2-carboxylic acid {3-[5-cyclopropyl-2-(3-fluoro-phenylamino)-pyrimidin-4-ylamino]-propyl}-amide] has an IC50 of 100 to 1000 nM.

Same assay, conditions: Table 5; 50 μM ATP; read-out: TBK1 IC50
For `CC(C)c1cnc(Nc2cccc(F)c2)nc1NCCCNC(=O)C1CCC1` [Compound B, cyclobutanecarboxylic acid {3-[2-(3-fluoro-phenylamino)-5-isopropyl-pyrimidin-4-ylamino]-propyl}-amide, reference compound], the IC50 was greater than 1000 nM.
`O=C(NCCCNc1nc(Nc2cccc(F)c2)ncc1CC1CC1)C1CCC1` [Compound C, cyclobutanecarboxylic acid {3-[5-cyclopropylmethyl-2-(3-fluoro-phenylamino)-pyrimidin-4-ylamino]-propyl}-amide, reference compound] gave an IC50 greater than 1000 nM.
`CCc1cnc(Nc2cccc(F)c2)nc1NCCCNC(=O)C1CCC1` [Compound D, cyclobutanecarboxylic acid {3-[5-ethyl-2-(3-fluoro-phenylamino)-pyrimidin-4-ylamino]-propyl}-amide, reference compound] was tested, and the IC50 was 42 nM.

Same assay, conditions: from TBK1 IC50 values of Table 5
With `CCc1cnc(Nc2cccc(F)c2)nc1NCCCNC(=O)C1CCC1` [Compound D, cyclobutanecarboxylic acid {3-[5-ethyl-2-(3-fluoro-phenylamino)-pyrimidin-4-ylamino]-propyl}-amide, reference compound] the “fold loss in activity against TBK1 compared to Example 23” value was 10 fold.
